{"source": "patent US6409991B1", "about": "“Treatment and system for nicotine withdrawal” (priority 1999, dated 2002)", "origin": "cited, not measured here", "data": [{"smiles": "CN1CCCC1c1cccnc1", "note": "(stereo not shown) [nicotine]", "values": [{"measurement": "plasma half-life", "value": "approximately two"}]}]}
